# A compilation of properties of binary mixtures (doi:10.1016/j.molliq.2014.08.031)
# Assay: xn = mol fraction of the nth substance listed
# Conditions: 101 kPa
smiles,measurement,setting,value
CCCC[n+]1ccn(C)c1.CS(=O)(=O)[O-] + O,electrical conductivity,"298.15 K, x1 = 0.004",1.17 S/m
same,electrical conductivity,"298.15 K, x1 = 0.008",2.08 S/m
same,electrical conductivity,"298.15 K, x1 = 0.019",3.25 S/m
same,viscosity,"298.15 K, x2 = 0.5596",50 mPa·s
same,electrical conductivity,"298.15 K, x2 = 0.785",1.15 S/m
same,viscosity,"298.15 K, x2 = 0.8016",13.45 mPa·s
same,viscosity,"298.15 K, x2 = 0.8521",8.87 mPa·s
same,electrical conductivity,"298.15 K, x2 = 0.861",2.33 S/m
same,electrical conductivity,"298.15 K, x2 = 0.892",2.95 S/m
same,viscosity,"298.15 K, x2 = 0.9004",5.45 mPa·s
same,viscosity,"298.15 K, x2 = 0.9254",4.05 mPa·s
same,electrical conductivity,"298.15 K, x2 = 0.929",3.58 S/m
same,viscosity,"298.15 K, x2 = 0.9503",2.73 mPa·s
same,electrical conductivity,"298.15 K, x2 = 0.968",3.96 S/m
same,electrical conductivity,"299.15 K, x1 = 0.004",1.2 S/m
same,electrical conductivity,"299.15 K, x1 = 0.019",3.33 S/m
same,electrical conductivity,"299.15 K, x2 = 0.704",0.601 S/m
same,electrical conductivity,"299.15 K, x2 = 0.785",1.18 S/m
same,electrical conductivity,"299.15 K, x2 = 0.796",1.29 S/m
same,electrical conductivity,"299.15 K, x2 = 0.861",2.39 S/m
same,electrical conductivity,"299.15 K, x2 = 0.929",3.67 S/m
same,electrical conductivity,"299.15 K, x2 = 0.968",4.04 S/m
same,electrical conductivity,"300.15 K, x1 = 0.008",2.17 S/m
same,electrical conductivity,"300.15 K, x1 = 0.019",3.4 S/m
same,electrical conductivity,"300.15 K, x2 = 0.704",0.634 S/m
same,electrical conductivity,"300.15 K, x2 = 0.785",1.23 S/m
same,electrical conductivity,"300.15 K, x2 = 0.796",1.3 S/m
same,electrical conductivity,"300.15 K, x2 = 0.861",2.5 S/m
same,electrical conductivity,"300.15 K, x2 = 0.892",3.02 S/m
same,electrical conductivity,"300.15 K, x2 = 0.929",3.75 S/m
same,electrical conductivity,"300.15 K, x2 = 0.951",4.23 S/m
same,electrical conductivity,"300.15 K, x2 = 0.968",4.13 S/m
same,electrical conductivity,"301.15 K, x1 = 0.004",1.27 S/m
same,electrical conductivity,"301.15 K, x1 = 0.008",2.23 S/m
same,electrical conductivity,"301.15 K, x1 = 0.019",3.5 S/m
same,electrical conductivity,"301.15 K, x2 = 0.704",0.661 S/m
same,electrical conductivity,"301.15 K, x2 = 0.785",1.28 S/m
same,electrical conductivity,"301.15 K, x2 = 0.796",1.36 S/m
same,electrical conductivity,"301.15 K, x2 = 0.892",3.11 S/m
same,electrical conductivity,"301.15 K, x2 = 0.929",3.87 S/m
same,electrical conductivity,"301.15 K, x2 = 0.951",4.33 S/m
same,electrical conductivity,"301.15 K, x2 = 0.968",4.05 S/m
same,electrical conductivity,"302.15 K, x1 = 0.004",1.29 S/m
same,electrical conductivity,"302.15 K, x1 = 0.008",2.26 S/m
same,electrical conductivity,"302.15 K, x2 = 0.704",0.663 S/m
same,electrical conductivity,"302.15 K, x2 = 0.796",1.41 S/m
same,electrical conductivity,"302.15 K, x2 = 0.892",3.2 S/m
same,electrical conductivity,"302.15 K, x2 = 0.929",3.97 S/m
same,electrical conductivity,"302.15 K, x2 = 0.951",4.43 S/m
same,electrical conductivity,"302.15 K, x2 = 0.968",4.28 S/m
same,electrical conductivity,"303.15 K, x1 = 0.004",1.31 S/m
same,electrical conductivity,"303.15 K, x1 = 0.008",2.31 S/m
same,electrical conductivity,"303.15 K, x1 = 0.019",3.66 S/m
same,electrical conductivity,"303.15 K, x2 = 0.785",1.39 S/m
same,electrical conductivity,"303.15 K, x2 = 0.796",1.47 S/m
same,electrical conductivity,"303.15 K, x2 = 0.892",3.3 S/m
same,electrical conductivity,"303.15 K, x2 = 0.929",4.16 S/m
same,electrical conductivity,"303.15 K, x2 = 0.951",4.54 S/m
same,electrical conductivity,"303.15 K, x2 = 0.968",4.41 S/m
same,electrical conductivity,"304.15 K, x1 = 0.004",1.34 S/m
same,electrical conductivity,"304.15 K, x1 = 0.008",2.37 S/m
same,electrical conductivity,"304.15 K, x1 = 0.019",3.73 S/m
same,electrical conductivity,"304.15 K, x2 = 0.704",0.753 S/m
same,electrical conductivity,"304.15 K, x2 = 0.785",1.44 S/m
same,electrical conductivity,"304.15 K, x2 = 0.861",2.79 S/m
same,electrical conductivity,"304.15 K, x2 = 0.892",3.4 S/m
same,electrical conductivity,"304.15 K, x2 = 0.929",4.22 S/m
same,electrical conductivity,"304.15 K, x2 = 0.951",4.61 S/m
same,electrical conductivity,"304.15 K, x2 = 0.968",4.55 S/m
same,electrical conductivity,"305.15 K, x1 = 0.008",2.4 S/m
same,electrical conductivity,"305.15 K, x1 = 0.019",3.77 S/m
same,electrical conductivity,"305.15 K, x2 = 0.785",1.46 S/m
same,electrical conductivity,"305.15 K, x2 = 0.796",1.56 S/m
same,electrical conductivity,"305.15 K, x2 = 0.892",3.51 S/m
same,electrical conductivity,"305.15 K, x2 = 0.929",4.35 S/m
same,electrical conductivity,"305.15 K, x2 = 0.951",4.74 S/m
same,electrical conductivity,"305.15 K, x2 = 0.968",4.51 S/m
same,electrical conductivity,"306.15 K, x1 = 0.008",2.45 S/m
same,electrical conductivity,"306.15 K, x1 = 0.019",3.85 S/m
same,electrical conductivity,"306.15 K, x2 = 0.704",0.815 S/m
same,electrical conductivity,"306.15 K, x2 = 0.785",1.49 S/m
same,electrical conductivity,"306.15 K, x2 = 0.796",1.62 S/m
same,electrical conductivity,"306.15 K, x2 = 0.892",3.6 S/m
same,electrical conductivity,"306.15 K, x2 = 0.929",4.49 S/m
same,electrical conductivity,"306.15 K, x2 = 0.951",5.02 S/m
same,electrical conductivity,"306.15 K, x2 = 0.968",4.73 S/m
same,electrical conductivity,"307.15 K, x1 = 0.004",1.42 S/m
same,electrical conductivity,"307.15 K, x1 = 0.019",4.02 S/m
same,electrical conductivity,"307.15 K, x2 = 0.704",0.851 S/m
same,electrical conductivity,"307.15 K, x2 = 0.796",1.64 S/m
same,electrical conductivity,"307.15 K, x2 = 0.861",3.04 S/m
same,electrical conductivity,"307.15 K, x2 = 0.892",3.74 S/m
same,electrical conductivity,"307.15 K, x2 = 0.929",4.59 S/m
same,electrical conductivity,"307.15 K, x2 = 0.951",4.98 S/m
same,electrical conductivity,"307.15 K, x2 = 0.968",4.78 S/m
same,electrical conductivity,"308.15 K, x1 = 0.004",1.44 S/m
same,electrical conductivity,"308.15 K, x1 = 0.008",2.62 S/m
same,electrical conductivity,"308.15 K, x2 = 0.704",0.882 S/m
same,electrical conductivity,"308.15 K, x2 = 0.785",1.64 S/m
same,electrical conductivity,"308.15 K, x2 = 0.796",1.69 S/m
same,electrical conductivity,"308.15 K, x2 = 0.892",3.83 S/m
same,electrical conductivity,"308.15 K, x2 = 0.929",4.72 S/m
same,electrical conductivity,"308.15 K, x2 = 0.951",5.05 S/m
same,electrical conductivity,"309.15 K, x1 = 0.004",1.47 S/m
same,electrical conductivity,"309.15 K, x1 = 0.008",2.62 S/m
same,electrical conductivity,"309.15 K, x1 = 0.019",4.14 S/m
same,electrical conductivity,"309.15 K, x2 = 0.704",0.921 S/m
same,electrical conductivity,"309.15 K, x2 = 0.861",3.17 S/m
same,electrical conductivity,"309.15 K, x2 = 0.892",3.93 S/m
same,electrical conductivity,"309.15 K, x2 = 0.929",4.79 S/m
same,electrical conductivity,"309.15 K, x2 = 0.951",5.22 S/m
same,electrical conductivity,"310.15 K, x1 = 0.004",1.5 S/m
same,electrical conductivity,"310.15 K, x1 = 0.008",2.66 S/m
same,electrical conductivity,"310.15 K, x2 = 0.704",0.956 S/m
same,electrical conductivity,"310.15 K, x2 = 0.785",1.74 S/m
same,electrical conductivity,"310.15 K, x2 = 0.796",1.8 S/m
same,electrical conductivity,"310.15 K, x2 = 0.929",4.93 S/m
same,electrical conductivity,"310.15 K, x2 = 0.951",5.35 S/m
same,electrical conductivity,"311.15 K, x1 = 0.004",1.54 S/m
same,electrical conductivity,"311.15 K, x1 = 0.008",2.73 S/m
same,electrical conductivity,"311.15 K, x1 = 0.019",4.21 S/m
same,electrical conductivity,"311.15 K, x2 = 0.704",0.987 S/m
same,electrical conductivity,"311.15 K, x2 = 0.785",1.79 S/m
same,electrical conductivity,"311.15 K, x2 = 0.796",1.86 S/m
same,electrical conductivity,"311.15 K, x2 = 0.892",4.16 S/m
same,electrical conductivity,"311.15 K, x2 = 0.929",5.04 S/m
same,electrical conductivity,"311.15 K, x2 = 0.951",5.47 S/m
same,electrical conductivity,"311.15 K, x2 = 0.968",5.2 S/m
same,electrical conductivity,"312.15 K, x1 = 0.004",1.57 S/m
same,electrical conductivity,"312.15 K, x1 = 0.008",2.75 S/m
same,electrical conductivity,"312.15 K, x1 = 0.019",4.39 S/m
same,electrical conductivity,"312.15 K, x2 = 0.704",1.06 S/m
same,electrical conductivity,"312.15 K, x2 = 0.785",1.86 S/m
same,electrical conductivity,"312.15 K, x2 = 0.861",3.44 S/m
same,electrical conductivity,"312.15 K, x2 = 0.892",4.28 S/m
same,electrical conductivity,"312.15 K, x2 = 0.929",5.15 S/m
same,electrical conductivity,"312.15 K, x2 = 0.951",5.65 S/m
same,electrical conductivity,"312.15 K, x2 = 0.968",5.28 S/m
same,electrical conductivity,"313.15 K, x1 = 0.004",1.58 S/m
same,electrical conductivity,"313.15 K, x1 = 0.008",2.8 S/m
same,electrical conductivity,"313.15 K, x1 = 0.019",4.46 S/m
